2 compounds from patent US20140072999A1, “METHODS OF SIMULATING CHEMOTHERAPY FOR A PATIENT” (Precision Therapeutics, Inc., priority 2008, published 2014) can be followed below.

The test system of experiment [1] is tumor cells cultured from primary ovarian cancer specimens. The experiment in a line: in vitro chemoresponse assay (ChemoFx), AUC7 drug response score. The conditions noted are these: for share of tumors exhibiting in vitro resistance: AUC7 score >75th rank, patients of the observational study; for AUC (first seven doses) of the 25% of historical dose response curves with the highest scores (resistant cut-off) / AUC (first 7 doses) of the 25% of historical dose response curves with the lowest scores (sensitive cut-off): sum of survival fractions over doses 1-7, more than 2,000 specimens; for AUC (first 7 doses) of the 25% of historical dose response curves with the lowest scores (sensitive cut-off): smaller score = more sensitive. The experiment is classed as cell-based, human. How it is done: Briefly, in certain embodiments, cohesive multicellular particulates (explants) are prepared from a patient's tissue sample (e.g., a biopsy sample or surgical specimen) using mechanical fragmentation. This mechanical fragmentation of the explant may take place in a medium substantially free of enzymes that are capable of digesting the explant. Some enzymatic digestion may take place in certain embodiments. Generally, the tissue sample is systematically minced using two sterile scalpels in a scissor-like motion, or mechanically equivalent manual or automated opposing incisor blades. This cross-cutting motion creates smooth cut edges on the resulting tissue multicellular particulates. The tumor particulates each measure from about 0.25 to about 1.5 mm^3, for example, about 1 mm^3.
After the tissue sample has been minced, the particles are plated in culture flasks. The number of explants plated per flask may vary, for example, between one and 25, such as from 5 to 20 explants per flask. For example, about 9 explants may be plated per T-25 flask, and 20 particulates may be plated per T-75 flask. For purposes of illustration, the explants may be evenly distributed across the bottom surface of the flask, followed by initial inversion for about 10-15 minutes. The flask may then be placed in a non-inverted position in a 37° C. CO2 incubator for about […], Flasks are checked regularly for growth and contamination. Over a period of a few weeks a cell monolayer will form. Further, it is believed (without any intention of being bound by the theory) that tumor cells grow out from the multicellular explant prior to stromal cells. Thus, by initially maintaining the tissue cells within the explant and removing the explant at a predetermined time (e.g., at about 10 to about 50 percent confluency, or at about 15 to about 25 percent confluency), growth of the tumor cells (as opposed to stromal cells) into a monolayer is facilitated. In certain embodiments, the tumor explant may be agitated to substantially release tumor cells from the tumor explant, and the released cells cultured to produce a cell culture monolayer. The use of this procedure to form a cell culture monolayer helps maximize the growth of representative tumor cells from the tissue sample.
A panel of active agents may then be screened using the cultured cells. Generally, the agents are tested against the cultured cells using plates such as microtiter plates. For the chemosensitivity assay, a reproducible number of cells is delivered to a plurality of wells on one or more plates, preferably with an even distribution of cells throughout the wells. For example, cell suspensions are generally formed from the monolayer cells before substantial phenotypic drift of the tumor cell population occurs. The cell suspensions may be, without limitation, about 4,000 to 12,000 cells/ml, or may be about 4,000 to 9,000 cells/ml, or about 7,000 to 9,000 cells/ml. The individual wells for chemoresponse testing are inoculated with the cell suspension, with each well or “segregated site” containing about 10^2 to 10^4 cells. The cells are generally cultured in the segregated sites for about 4 to about 30 hours prior to contact with an agent.
The efficacy of each agent in the panel is determined against the patient's cultured cells, by determining the viability of the cells (e.g., number of viable cells). For example, at predetermined intervals before, simultaneously with, or beginning immediately after, contact with each agent or combination, an automated cell imaging system may take images of the cells using one or more of visible light, UV light and fluorescent light. Alternatively, the cells may be imaged after about 25 to about 200 hours of contact with each treatment. The cells may be imaged once or multiple times, prior to or during contact with each treatment. Of course, any method for determining the viability of the cells may be used to assess the efficacy of each treatment in vitro. […]

The subject of experiment [2] is FIGO stage III-IV ovarian, fallopian and peritoneal cancer. The experiment in a line: observational study: progression-free survival by in vitro response, patients treated with carboplatin + paclitaxel after cytoreductive surgery. The conditions noted are these: patients treated with C+P; for hazard ratio of disease progression, in vitro resistant vs S+I: univariate. The format is in vivo, human. From the text: Women with FIGO stage III-IV ovarian, fallopian and peritoneal cancer were enrolled in an observational study and received in vitro chemoresponse testing between 2006 and 2010. Two hundred seventy-six (276) patients treated with carboplatin (C)+paclitaxel (P) following cytoreductive surgery were included in this analysis. Tumor response to C or P was classified into one of three categories according to assay response score: sensitive (S), intermediately sensitive (I), and resistant (R). Patient clinical information and progression-free survival (PFS) were retrospectively collected. Association of assay drug response with […] was analyzed using Kaplan-Meier procedure and Cox regression model.

Setting [3] is: grouped by in vitro response to the named drug.

As to `N.N.O=C([O-])C1(C(=O)[O-])CCC1.[Pt+2]` [carboplatin, Carboplatin], in experiment [1], the “share of tumors exhibiting in vitro resistance” value came out at 19%, the “AUC (first seven doses) of the 25% of historical dose response curves with the highest scores (resistant cut-off)” value is given as at least 5.5 and the “AUC (first 7 doses) of the 25% of historical dose response curves with the lowest scores (sensitive cut-off)” value was at most 4.3. Moreover, in experiment [2] (controlled for clinical covariates), the “hazard ratio of disease progression, in vitro resistant vs S+I, multivariate analysis” value was determined as 1.71. In addition, in experiment [2] (setting [3]), the “median PFS, tumors intermediately sensitive (I) in vitro” value stood at 16.6 months; the “median PFS, tumors resistant (R) in vitro” value was 11.8 months; the “median PFS, tumors sensitive (S) in vitro” value is reported as 17.4 months. For the same compound, the “hazard ratio of disease progression, in vitro resistant vs S+I” value in experiment [2] stood at 1.87.

Turning to `CC(=O)O[C@H]1C(=O)[C@@]2(C)[C@H]([C@H](OC(=O)c3ccccc3)[C@]3(O)C[C@H](OC(=O)[C@H](O)[C@@H](NC(=O)c4ccccc4)c4ccccc4)C(C)=C1C3(C)C)[C@]1(OC(C)=O)CO[C@@H]1C[C@@H]2O` [paclitaxel, Paclitaxel], in experiment [1], the “share of tumors exhibiting in vitro resistance” value turned out to be 22%, the “AUC (first seven doses) of the 25% of historical dose response curves with the highest scores (resistant cut-off)” value is reported as at least 6.0 and the “AUC (first 7 doses) of the 25% of historical dose response curves with the lowest scores (sensitive cut-off)” value is reported as at most 5.0. Further, the “hazard ratio of disease progression, in vitro resistant vs S+I” value in experiment [2] was found to be 1.43.
